Measurements from patent publication US20250127801A1, “BRIDGED TRICYCLIC CARBAMOYLPYRIDONE COMPOUNDS AND USES THEREOF” (priority 2023, published 2025).
Values after ≈ are worked out from the molar mass of the structure shown. Where two headings read alike, the source gives them in different places. Blank lines part the entries; values can stand above or below the compound they belong to.

Experiments:
HIV-1 (IIIB) = assay: microbe, parasite or virus in culture; format: cell-based
in vitro = conditions: human; for CC50 at 5 days: uninfected MT-4 cells
physchem = conditions: 23 °C, thermodynamic from solid; for solubility thermodynamic at 24 h: FaSSIF; for solubility thermodynamic: fassif
[1] = Human immunodeficiency virus 1, MT4, 120 h, HIV-1 (IIIB) replication in MT-4 cells, 5 days incubation, Cell Titer Glo, read-out: MT4 EC50
[2] = Human immunodeficiency virus 1, IIIB, MT4, 120 h, read-out: MT4 EC50 (nM)

EC50 (HIV-1 (IIIB); [1]): 3.19 nM
solubility thermodynamic at 24 h (physchem): 3320 µg/mL (≈ 4.11 mM)
Structure (SMILES): CC1=NO[C@@]2(CC[C@H](C)N3C[C@H]2n2cc(C(=O)NCc4ccc(F)cc4F)c(=O)c(OCOC(=O)N(C)c4ncccc4COC(=O)[C@@H](N)CCCCN)c2C3=O)C1 [Compound 10, (2-((((((3′S,5S,7′R)-10′-((2,4-difluorobenzyl)carbamoyl)-3,3′-dimethyl-1′,11′-dioxo-1′,4′,5′,11′-tetrahydro-3′H,4H,7′H-spiro[isoxazole-5,6′-[2,7]methanopyrido[1,2-a][1,4]diazonin]-12′-yl)oxy)methoxy)carbonyl)(methyl)amino)pyridin-3-yl)methyl L-lysinate]
CC50 at 5 days (in vitro): 10.2 µM

Structure (SMILES): CC1=NO[C@@]2(CC[C@H](C)N3C[C@H]2n2cc(C(=O)NCc4ccc(F)cc4F)c(=O)c(OC(=O)N(C)c4ncccc4COP(=O)(O)O)c2C3=O)C1 [Compound 1, (3′S,5S,7′R)-10′-((2,4-difluorobenzyl)carbamoyl)-3,3′-dimethyl-1′,11′-dioxo-1′,4′,5′,11′-tetrahydro-3′H,4H,7′H-spiro[isoxazole-5,6′-[2,7]methanopyrido[1,2-a][1,4]diazonin]-12′-yl methyl(3-((phosphonooxy)methyl)pyridin-2-yl)carbamate]
EC50 (HIV-1 (IIIB); [2]): 3.48 nM
CC50 (in vitro): 15.9 µM
solubility thermodynamic (physchem): 4900 µg/mL (≈ 6.71 mM)

Structure (SMILES): CC1=NO[C@@]2(CC[C@H](C)N3C[C@H]2n2cc(C(=O)NCc4ccc(F)cc4F)c(=O)c(OC(=O)N(C)c4ncccc4CN(CC(=O)OC(C)(C)C)C(=O)OCOP(=O)(O)O)c2C3=O)C1 [Compound 5, tert-butyl N-((2-(((((3′S,5S,7′R)-10′-((2,4-difluorobenzyl)carbamoyl)-3,3′-dimethyl-1′,11′-dioxo-1′,4′,5′,11′-tetrahydro-3′H,4H,7′H-spiro[isoxazole-5,6′-[2,7]methanopyrido[1,2-a][1,4]diazonin]-12′-yl)oxy)carbonyl)(methyl)amino)pyridin-3-yl)methyl)-N-(((phosphonooxy)methoxy)carbonyl)glycinate]
EC50 (HIV-1 (IIIB); [2]): 1.24 nM
CC50 (in vitro): 10.3 µM
solubility thermodynamic (physchem): 4010 µg/mL (≈ 4.37 mM)

Structure (SMILES): CC1=NO[C@@]2(CC[C@H](C)N3C[C@H]2n2cc(C(=O)NCc4ccc(F)cc4F)c(=O)c(OCOC(=O)CC(C)(C)c4c(CC(=O)N5CCC[C@@H]5C(=O)O)cc(C)cc4OP(=O)(O)O)c2C3=O)C1 [Compound 57, (2-(2-(4-((((3′S,5S,7′R)-10′-((2,4-difluorobenzyl)carbamoyl)-3,3′-dimethyl-1′,11′-dioxo-1′,4′,5′,11′-tetrahydro-3′H,4H,7′H-spiro[isoxazole-5,6′-[2,7]methanopyrido[1,2-a][1,4]diazonin]-12′-yl)oxy)methoxy)-2-methyl-4-oxobutan-2-yl)-5-methyl-3-(phosphonooxy)phenyl)acetyl)-D-proline]
EC50 (HIV-1 (IIIB); [2]): 2.55 nM
CC50 (in vitro): 15 µM
solubility thermodynamic (physchem): 5460 µg/mL (≈ 5.79 mM)

EC50 (HIV-1 (IIIB); [1]): 0.93 nM
solubility thermodynamic at 24 h (physchem): 2540 µg/mL (≈ 3.45 mM)
Structure (SMILES): CC1=NO[C@@]2(CC[C@H](C)N3C[C@H]2n2cc(C(=O)NCc4ccc(F)cc4F)c(=O)c(OC(=O)[C@@H]4CCCN4C(=O)OCOP(=O)(O)O)c2C3=O)C1 [Compound 17, 2-((3′S,5S,7′R)-10′-((2,4-difluorobenzyl)carbamoyl)-3,3′-dimethyl-1′,11′-dioxo-1′,4′,5′,11′-tetrahydro-3′H,4H,7′H-spiro[isoxazole-5,6′-[2,7]methanopyrido[1,2-a][1,4]diazonin]-12′-yl) 1-((phosphonooxy)methyl) (2S)-pyrrolidine-1,2-dicarboxylate]
CC50 at 5 days (in vitro): 13 µM

Structure (SMILES): CC1=NO[C@@]2(CC[C@H](C)N3C[C@H]2n2cc(C(=O)NCc4ccc(F)cc4F)c(=O)c(OC(=O)N(C)c4ncc(C(=O)N[C@@H](CC(=O)O)C(=O)O)cc4COP(=O)(O)O)c2C3=O)C1 [Compound 84, (6-(((((3′S,5S,7′R)-10′-((2,4-difluorobenzyl)carbamoyl)-3,3′-dimethyl-1′,11′-dioxo-1′,4′,5′,11′-tetrahydro-3′H,4H,7′H-spiro[isoxazole-5,6′-[2,7]methanopyrido[1,2-a][1,4]diazonin]-12′-yl)oxy)carbonyl)(methyl)amino)-5-((phosphonooxy)methyl)nicotinoyl)-L-aspartic acid]
EC50 (HIV-1 (IIIB); [2]): 38 nM
CC50 (in vitro): ≥ 50 µM
solubility thermodynamic (physchem): 5580 µg/mL (≈ 6.27 mM)

Structure (SMILES): CC1=NO[C@@]2(CC[C@H](C)N3C[C@H]2n2cc(C(=O)NCc4ccc(F)cc4F)c(=O)c(OCc4ccccc4OP(=O)(O)O)c2C3=O)C1 [Compound 69, 2-((((3′S,5S,7′R)-10′-((2,4-difluorobenzyl)carbamoyl)-3,3′-dimethyl-1′,11′-dioxo-1′,4′,5′,11′-tetrahydro-3′H,4H,7′H-spiro[isoxazole-5,6′-[2,7]methanopyrido[1,2-a][1,4]diazonin]-12′-yl)oxy)methyl)phenyl dihydrogen phosphate]
EC50 (HIV-1 (IIIB); [2]): 1.78 nM
CC50 (in vitro): 14.1 µM
solubility thermodynamic (physchem): 5140 µg/mL

Structure (SMILES): CC1=NO[C@@]2(CC[C@H](C)N3C[C@H]2n2cc(C(=O)NCc4ccc(F)cc4F)c(=O)c(OCOC(=O)[C@@H]4CC[C@@H]4CN(CC(=O)O)C(=O)OCOP(=O)(O)O)c2C3=O)C1 [Compound 80, N-(((1S,2R)-2-(((((3′S,5S,7′R)-10′-((2,4-difluorobenzyl)carbamoyl)-3,3′-dimethyl-1′,11′-dioxo-1′,4′,5′,11′-tetrahydro-3′H,4H,7′H-spiro[isoxazole-5,6′-[2,7]methanopyrido[1,2-a][1,4]diazonin]-12′-yl)oxy)methoxy)carbonyl)cyclobutyl)methyl)-N-(((phosphonooxy)methoxy)carbonyl)glycine]
EC50 (HIV-1 (IIIB); [2]): 0.785 nM
CC50 (in vitro): 10.1 µM
solubility thermodynamic (physchem): 4150 µg/mL (≈ 4.94 mM)

Structure (SMILES): CC1=NO[C@@]2(CC[C@H](C)N3C[C@H]2n2cc(C(=O)NCc4ccc(F)cc4F)c(=O)c(OCc4ccc(OP(=O)(O)O)cn4)c2C3=O)C1 [Compound 71, 6-((((3′S,5S,7′R)-10′-((2,4-difluorobenzyl)carbamoyl)-3,3′-dimethyl-1′,11′-dioxo-1′,4′,5′,11′-tetrahydro-3′H,4H,7′H-spiro[isoxazole-5,6′-[2,7]methanopyrido[1,2-a][1,4]diazonin]-12′-yl)oxy)methyl)pyridin-3-yl dihydrogen phosphate]
EC50 (HIV-1 (IIIB); [2]): 1.02 nM
CC50 (in vitro): 9.3 µM
solubility thermodynamic (physchem): 3470 µg/mL

Structure (SMILES): CC1=NO[C@@]2(CC[C@H](C)N3C[C@H]2n2cc(C(=O)NCc4ccc(F)cc4F)c(=O)c(OC(=O)N(C)c4ncccc4CN(CCO)C(=O)OCOP(=O)(O)O)c2C3=O)C1 [Compound 35, (phosphonooxy)methyl ((2-(((((3′S,5S,7′R)-10′-((2,4-difluorobenzyl)carbamoyl)-3,3′-dimethyl-1′,11′-dioxo-1′,4′,5′,11′-tetrahydro-3′H,4H,7′H-spiro[isoxazole-5,6′-[2,7]methanopyrido[1,2-a][1,4]diazonin]-12′-yl)oxy)carbonyl)(methyl)amino)pyridin-3-yl)methyl)(2-hydroxyethyl)carbamate]
EC50 (HIV-1 (IIIB); [2]): 2.04 nM
CC50 (in vitro): 11.6 µM
solubility thermodynamic (physchem): 4460 µg/mL (≈ 5.26 mM)

Structure (SMILES): CC1=NO[C@@]2(CC[C@H](C)N3C[C@H]2n2cc(C(=O)NCc4ccc(F)cc4F)c(=O)c(OC(=O)N(C)c4ncc(C(=O)O)cc4COP(=O)(O)O)c2C3=O)C1 [Compound 4, 6-(((((3′S,5S,7′R)-10′-((2,4-difluorobenzyl)carbamoyl)-3,3′-dimethyl-1′,11′-dioxo-1′,4′,5′,11′-tetrahydro-3′H,4H,7′H-spiro[isoxazole-5,6′-[2,7]methanopyrido[1,2-a][1,4]diazonin]-12′-yl)oxy)carbonyl)(methyl)amino)-5-((phosphonooxy)methyl)nicotinic acid]
EC50 (HIV-1 (IIIB); [2]): 14.8 nM
CC50 (in vitro): ≥ 50 µM
solubility thermodynamic (physchem): 4800 µg/mL (≈ 6.2 mM)

EC50 (HIV-1 (IIIB); [1]): 3.49 nM
Structure (SMILES): CCCCCCCCCCCCCC(=O)Oc1ccc(CC(=O)Oc2c3n(cc(C(=O)NCc4ccc(F)cc4F)c2=O)[C@@H]2CN(C3=O)[C@@H](C)CC[C@]23CC(OC)=NO3)cc1 [Compound 95, [4-[2-[(1R,10S,13S)-4-[(2,4-difluorophenyl)methylcarbamoyl]-3′-methoxy-10-methyl-5,8-dioxo-spiro[2,9-diazatricyclo[7.4.1.02,7]tetradeca-3,6-diene-13,5′-4H-isoxazole]-6-yl]oxy-2-oxo-ethyl]phenyl] tetradecanoate]
CC50 at 5 days (in vitro): ≥ 50 µM

EC50 (HIV-1 (IIIB); [1]): 2.93 nM
Structure (SMILES): COC1=NO[C@@]2(CC[C@H](C)N3C[C@H]2n2cc(C(=O)NCc4ccc(F)cc4F)c(=O)c(OCOC(=O)N(C)C[C@@H]4CCCN4C(=O)OCOP(=O)(O)O)c2C3=O)C1 [Compound 16, (phosphonooxy)methyl (2S)-2-(((((((3′S,5S,7′R)-10′-((2,4-difluorobenzyl)carbamoyl)-3-methoxy-3′-methyl-1′,11′-dioxo-1′,4′,5′,11′-tetrahydro-3′H,4H,7′H-spiro[isoxazole-5,6′-[2,7]methanopyrido[1,2-a][1,4]diazonin]-12′-yl)oxy)methoxy)carbonyl)(methyl)amino)methyl)pyrrolidine-1-carboxylate]
CC50 at 5 days (in vitro): 16 µM

Structure (SMILES): CC1=NO[C@@]2(CC[C@H](C)N3C[C@H]2n2cc(C(=O)NCc4ccc(F)cc4F)c(=O)c(OC(=O)OCc4ccccc4OP(=O)(O)O)c2C3=O)C1 [Compound 32, (3′S,5S,7′R)-10′-((2,4-difluorobenzyl)carbamoyl)-3,3′-dimethyl-1′,11′-dioxo-1′,4′,5′,11′-tetrahydro-3′H,4H,7′H-spiro[isoxazole-5,6′-[2,7]methanopyrido[1,2-a][1,4]diazonin]-12′-yl (2-(phosphonooxy)benzyl) carbonate]
solubility thermodynamic (physchem): 1330 µg/mL (≈ 1.86 mM)

EC50 (HIV-1 (IIIB); [1]): 5.07 nM
Structure (SMILES): CCCCCCCCCCCCCC(=O)OCc1ccccc1C(=O)Oc1c2n(cc(C(=O)NCc3ccc(F)cc3F)c1=O)[C@@H]1CN(C2=O)[C@@H](C)CC[C@]12CC(OC)=NO2 [Compound 91, (3′S,5S,7′R)-10′-((2,4-difluorobenzyl)carbamoyl)-3-methoxy-3′-methyl-1′,11′-dioxo-1′,4′,5′,11′-tetrahydro-3′H,4H,7′H-spiro[isoxazole-5,6′-[2,7]methanopyrido[1,2-a][1,4]diazonin]-12′-yl 2-((tetradecanoyloxy)methyl)benzoate]
CC50 at 5 days (in vitro): ≥ 50 µM
